Experimental data taken from EP3390415B1, “(R)- AND (S)-1-(3-(3-N,N-DIMETHYLAMINOCARBONYL)PHENOXYL-4-NITROPHENYL)-1-ETHYL-N,N'-BIS (ETHYLENE)PHOSPHORAMIDATE, COMPOSITIONS AND METHODS FOR THEIR USE AND PREPARATION” (OBI PHARMA, INC., priority 2015, dated 2017).

Key:
[1] = Body weight and toxicity in the orthotopic liver cancer mouse model; format: in vivo, athymic nude mice; details: mouse, in vivo
[2] = tested on: HepG2-GFP human hepatocellular carcinoma; assay: Orthotopic mouse model of human liver cancer, tumor burden; format: in vivo, athymic nude mice; details: 30mg/kg, Qdx35, Gavages
Method: Female athymic nude mice (6 weeks of age) were used in this study. The animals were purchased from Beijing HFK Bioscience, Co., Ltd and maintained in a High Efficiency Particulate Air Filter (HEPA) filtered environment with cages, food, and bedding sterilized by irradiation or autoclaving. A total of 32 nude mice were used for the study. HepG2-GFP human hepatocellular carcinoma cells (AntiCancer, Inc., San Diego, CA) were incubated with RPMI-1640 (Gibco-BRL, Life Technologies, Inc.), which contained 10% FBS. Cells were grown in a CO2 Water Jacketed Incubator (Forma Scientific) maintaining 37°C and a 5% CO2/95% air atmosphere. Cell viability was determined by trypan blue exclusion analysis. Five female athymic nude mice were injected subcutaneously with a single dose of 5 x 10^6 HepG2-GFP cells. Tumors were harvested when their size reached 1cm^3 and the tumor tissues were then cut into small fragments of 1mm^3. Forty female nude mice were implanted orthotopically with a single piece of tumor fragment, which was derived from a subcutaneous tumor model of HepG2-GFP human hepatocellular carcinoma. The tumor tissue was orthotopically implanted in the right lobe of the liver in each mouse by SOI (Surgical Orthotopic Implantation). Briefly, an upper abdominal incision of 1cm was made under anesthesia. Right lobe of the liver was exposed and a part of the liver surface was injured mechanically by scissors. Then a piece of tumor fragment was fixed within the liver tissue, the liver was returned to the peritoneal cavity and the abdominal wall finally closed. Mice were kept in laminar-flow cabinets under specific pathogen-free-conditions.
Treatment was started three days after tumor implantation when the implanted tumors reached an average size of around 1 mm^2. The 32 tumor-bearing mice were randomly divided into four experimental groups of 8 mice each. Each cage was clearly marked for its group with four mice per cage. […] Table. Groups and treatment protocol
During the period of the study, all of the experimental mice were checked daily for mortality or signs of morbidity. […] The body weights of the mice were measured twice weekly during the study period. Images of tumor growth and progression were acquired twice a week during the period of the study with the FluorVivo imaging system, Model 300/Mag (INDEC, CA, USA). […] Livers were exposed for imaging, after which the tumors were removed and weighted with an electronic balance (Sartorius BS 124 S, Germany). Tumor tissues were kept in formalin for further analysis. Comparisons of body weights and tumor burdens in different groups were analyzed using the Student's t-test with an α = 0.05 (two-sided). After intravenously injection of the test agents, the mice had no lying, no autonomous activity reduction. The experimental animals were generally in good condition. Table. Comparison of mean mice body weight at the end of the study
The progressions of orthotopic HepG2-GFP hepatocellular carcinoma in different groups were monitored by real time imaging. Images were acquired twice a week. Typical tumor images at the end of the study in each group and tumor growth curves derived from the signals of tumor fluorescence, which were analyzed using the Power Station software (INDEC Biosystems, CA, USA), are shown in figure 6 and figure 7, respectively Table. Average tumor size in each group (mm2)

[3] = tested on: A375 melanoma human tumor xenograft; assay: In vivo human tumor xenograft model, antitumor activity; set-up: species or system nude mice; details: 2.5mpk,qdx5x2,ip
From the text: Specific pathogen-free homozygous female nude mice (nu/nu, Charles River Laboratories) were used. Mice were given food and water ad libitum and housed in microisolator cages. Four to six week old animals were identified by microchips (Locus Technology, Manchester, MD, USA) at the time of the experiments. All animal studies were approved by the Institutional Animal Care and Use Committee at Threshold Pharmaceuticals, Inc.
All cell lines were from the American Type Culture Collection (ATCC, Rockville, MD, USA).
Cells were mixed with Matrigel (30% in H460) and 0.2 ml per mouse were subcutaneously implanted to the flank area of the animals. When tumor size reached 100-150 mm^3, mice were randomized into experimental or vehicle groups with 10 mice/group and treatment was started (Day 1). The tested compounds were formulated in 5% DMSO in D5W. All compounds were given by IP, QDx5/wk (5 days on, 2 days off) as one cycle, for a total of 2 cycles. Tumor growth and body weight were measured twice a week. Tumor volume was calculated as (length x width^2)/2. Drug efficacy was assessed as Tumor Growth Inhibition (TGI) and Tumor Growth Delay (TGD). TGI was defined as (1-ΔT/ΔC) x 100, where ΔT/ΔC presented the ratio of the change in mean (or median, if variation within the group was relatively large) tumor volume of the treated group and of the control group. TGD was calculated as the extra days for the treated tumor to reach 500mm^3 as compared to the control group. Animals were culled when individual tumor size reached over 2000mm^3 or mean tumor volume exceeded 1000mm^3 in the group. Data are expressed as the mean ± SEM. One-way analysis of variance with Dunnett post comparison test (GraphPad Prism 4) or two-tailed student's t-test were used for analysis. A P level < 0.05 was considered statistically significant.
This study employed an A375 melanoma human tumor xenograft model and the compounds provided herein were compared to thiotepa and the approved anti melanoma drug, Abraxane. […] Mpk refers to mg/kg.

Compound | toxicity to the experimental mice [1] | Tumor weight (g) (mean ± sd) [2] | Tumor area (mm^2) (mean ± sd) ([2]; fluorescence imaging) | tumor inhibition rate IR(%) ([2]; from final average tumor weights) | Days to 500 mm^3 [3] [days] | Days to 1000 mm^3 [3] [days] | TGD500, Days (vs. vehicle) [3] [days] | TGD1000, Days (vs. vehicle) [3] [days] | TGI [3] [%]
CNC(=O)c1cc(Oc2ccc(NC(=O)Nc3ccc(Cl)c(C(F)(F)F)c3)cc2)ccn1 [Sorafenib, reference compound] | a certain degree of toxicity | 0.0637 ± 0.0389 | 8.2 ± 5.3 | 58.7 | – | – | – | – | –
S=P(N1CC1)(N1CC1)N1CC1 [Thio-TEPA, thiotepa] | – | – | – | – | 18 | 27 | 3 | 2 | 16.6
